In ChEMBL document CHEMBL1201862, “PubChem BioAssay data set” (2004):
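Each compound was tested at five concentrations against cells in 96-well plates for 48 hours. GI50 marks 50% less growth.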 Active and inactive are the calls of the source. Rule as the data show it: active = GI50 up to about 1.1 µM and inactive = higher.

Key:
Test in all cases: NCI tumour cell line growth inhibition, 48 h
[1] = system: A549
[2] = system: COLO 205
[3] = system: EKVX
[4] = system: HCT-15
[5] = system: HOP-62
[6] = system: Hs-578T
[7] = system: IGROV-1
[8] = system: K562
[9] = system: KM12
[10] = system: MDA-MB-435
[11] = system: NCI-H522
[12] = system: NCI/ADR-RES
[13] = system: OVCAR-4
[14] = system: OVCAR-8
[15] = system: SF-268
[16] = system: SF-295
[17] = system: SN12C
[18] = system: SW-620
[19] = system: UACC-257
[20] = system: SR

SMILES	GI50 [1]	GI50 [2]	GI50 [3]	GI50 [4]	GI50 [5]	GI50 [6]	GI50 [7]	GI50 [8]	GI50 [9]	GI50 [10]	GI50 [11]	GI50 [12]	GI50 [13]	GI50 [14]	GI50 [15]	GI50 [16]	GI50 [17]	GI50 [18]	GI50 [19]	GI50 [20]
O=C(c1ccccc1)c1ccc(N2C(=O)/C(=C/c3cccc(Oc4ccccc4)c3)N=C2c2ccccc2)c(N2C(=O)/C(=C/c3cccc(Oc4ccccc4)c3)N=C2c2ccccc2)c1	31.6 µM (inactive)	18 µM (inactive)	44.2 µM (inactive)	21.2 µM	67.5 µM (inactive)	26.9 µM (inactive)	39.1 µM (inactive)	9.42 µM (inactive)	24.5 µM (inactive)	4.72 µM (inactive)	11.4 µM (inactive)	18.5 µM (inactive)	35.3 µM (inactive)	32.1 µM (inactive)	36.3 µM (inactive)	25 µM (inactive)	92.3 µM (inactive)	30.7 µM (inactive)	17.7 µM (inactive)	
CCC(CS(=O)(=O)O)[N+](=O)[O-] (centres undefined)	> 100 µM (inactive)	> 100 µM (inactive)	> 100 µM (inactive)	> 100 µM	> 100 µM (inactive)	> 100 µM (inactive)	> 100 µM (inactive)	> 100 µM (inactive)	> 100 µM (inactive)	> 100 µM (inactive)	> 100 µM (inactive)	> 100 µM (inactive)	> 100 µM (inactive)	> 100 µM (inactive)	> 100 µM (inactive)	> 100 µM (inactive)	> 100 µM (inactive)	> 100 µM (inactive)	> 100 µM (inactive)	
CCc1nc(N)nc(N)c1-c1ccc(Cl)c(N=[N+]=[N-])c1		11.9 µM (inactive)	5.21 µM (inactive)		9.53 µM (inactive)	27.4 µM (inactive)		0.531 µM (active)	8.63 µM (inactive)	4.57 µM (inactive)	7.06 µM (inactive)	6.31 µM (inactive)	22.4 µM (inactive)		6.4 µM (inactive)	2.84 µM (inactive)	9.38 µM (inactive)	2.42 µM (inactive)		
NCCCNCCCCN1CC1	9.57 µM (inactive)	1.02 µM (active)	4.61 µM (inactive)	8.41 µM	2.72 µM (inactive)	1.08 µM (active)	3.84 µM (inactive)	2.49 µM (inactive)	6.98 µM (inactive)	3.6 µM (inactive)	2.81 µM (inactive)	3.33 µM (inactive)	0.259 µM (active)	2.07 µM (inactive)	1.99 µM (inactive)	20 µM (inactive)	3.77 µM (inactive)	2.31 µM (inactive)	1.39 µM (inactive)	
CO[C@]1(c2ccc([N+](=O)[O-])cc2)Oc2ccccc2C(=O)[C@@]1(Nc1ccc(C=O)cc1)OC	> 10 µM (inactive)	> 10 µM (inactive)	> 10 µM (inactive)	> 10 µM	> 10 µM (inactive)	> 10 µM (inactive)	> 10 µM (inactive)	> 10 µM (inactive)	> 10 µM (inactive)	> 10 µM (inactive)		> 10 µM (inactive)	> 10 µM (inactive)	> 10 µM (inactive)	> 10 µM (inactive)	> 10 µM (inactive)	> 10 µM (inactive)	> 10 µM (inactive)	> 10 µM (inactive)	> 10 µM (inactive)
CC1=C(C#N)C(=C(C#N)C#N)OC1(C)Cc1ccccc1 (centres undefined)	56.8 µM (inactive)	21 µM (inactive)	45.9 µM (inactive)	23.3 µM	58.9 µM (inactive)	30 µM (inactive)	51.3 µM (inactive)	39.6 µM (inactive)	55.5 µM (inactive)	> 100 µM (inactive)	14.4 µM (inactive)	31.9 µM (inactive)	21.9 µM (inactive)	65.5 µM (inactive)	49.5 µM (inactive)	67.3 µM (inactive)	82.6 µM (inactive)	42.9 µM (inactive)	49.4 µM (inactive)	
CSc1nc(O)c(C#N)c(-c2ccc(Cl)cc2)n1	> 100 µM (inactive)	> 100 µM (inactive)	> 100 µM (inactive)	> 100 µM	> 100 µM (inactive)	64.9 µM (inactive)	> 100 µM (inactive)	> 100 µM (inactive)	> 100 µM (inactive)	> 100 µM (inactive)	51.8 µM (inactive)	> 100 µM (inactive)	> 100 µM (inactive)	> 100 µM (inactive)	> 100 µM (inactive)	> 100 µM (inactive)	> 100 µM (inactive)	> 100 µM (inactive)	> 100 µM (inactive)	
CCO/C(=N/S(=O)(=O)C(F)(F)F)N(C(C)C)C(C)C	> 100 µM (inactive)	> 100 µM (inactive)	> 100 µM (inactive)	> 100 µM		> 100 µM (inactive)	> 100 µM (inactive)		> 100 µM (inactive)	> 100 µM (inactive)	> 100 µM (inactive)	> 100 µM (inactive)	> 100 µM (inactive)	> 100 µM (inactive)	> 100 µM (inactive)		> 100 µM (inactive)	> 100 µM (inactive)	> 100 µM (inactive)	
CCOC(=O)NN(C(=O)OCC)c1ccc(/N=N/c2ccc(OC)cc2)n1C	23 µM (inactive)	21.7 µM (inactive)	> 100 µM (inactive)	12.5 µM	26.9 µM (inactive)	65.8 µM (inactive)	29 µM (inactive)	23.1 µM (inactive)	24 µM (inactive)	22.7 µM (inactive)	18 µM (inactive)	25.9 µM (inactive)	36.9 µM (inactive)	35.5 µM (inactive)		37.4 µM (inactive)	37.1 µM (inactive)		23.1 µM (inactive)	
CCCCCC[C@H]([C@H](C)O)n1cnc2c(N)ncnc21	> 100 µM (inactive)	> 100 µM (inactive)	> 100 µM (inactive)	> 100 µM	> 100 µM (inactive)	> 100 µM (inactive)	> 100 µM (inactive)	> 100 µM (inactive)	> 100 µM (inactive)	> 100 µM (inactive)		> 100 µM (inactive)	> 100 µM (inactive)	> 100 µM (inactive)	> 100 µM (inactive)	> 100 µM (inactive)	> 100 µM (inactive)	> 100 µM (inactive)	> 100 µM (inactive)	> 100 µM (inactive)
COC(=O)[C@@]1(NC(=O)C(CC(=O)OC(C)(C)C)NC(=O)OC(C)(C)C)C[C@H]1C (some centres undefined)	> 100 µM (inactive)	> 100 µM (inactive)	> 100 µM (inactive)	> 100 µM	> 100 µM (inactive)	> 100 µM (inactive)	> 100 µM (inactive)	> 100 µM (inactive)	> 100 µM (inactive)	> 100 µM (inactive)	> 100 µM (inactive)	> 100 µM (inactive)	> 100 µM (inactive)	> 100 µM (inactive)	> 100 µM (inactive)	> 100 µM (inactive)	> 100 µM (inactive)	> 100 µM (inactive)	> 100 µM (inactive)	
